Assay results from publication PMC6858373 (Scientific Reports, 2019).
Read-outs that look alike come from different tables or passages of the source.

How the values were obtained:
[1] = target: T1, FGF14:Nav1.6 C-tail complex (Homo sapiens, UniProt Q92915+Q9UQD0); assay: Split-luciferase complementation assay (LCA) in Clone V double stable HEK293 cells; type: cell-based; details: for Split Luciferase Assay % Lum Set 1 / Split Luciferase Assay %Lum Set 2: normalized to on-plate 0.3% DMSO controls (n=16 per plate); for Split Luciferase Assay %Lum Avg: average of Set 1 and Set 2, normalized to 0.3% DMSO controls
T1 construct: polymerase chain reaction (PCR) amplification of the FGF14 open reading frame (nt 1–855); C-terminal fragment of Nav1.6 (amino acids 1763–1976) fused with CD4ΔC-tail (amino acids 1–395); expressed in transfected cells

[2] = target: full-length P. pyralis luciferase (Photinus pyralis, UniProt P08659, K549A/L550V/N119G/N50D/S548I); type: cell-based
[3] = CC_NCI screening, biological replicate Set 1, normalized to on-plate 0.3% DMSO controls
[4] = CC_NCI screening, biological replicate Set 1
[5] = CC_NCI screening, biological replicate Set 2, normalized to on-plate 0.3% DMSO controls
[6] = CC_NCI screening, biological replicate Set 2
[7] = CC_NCI screening, normalized to on-plate 0.3% DMSO controls
[8] = CC_NCI screening, LCA luminescence, biological replicate Set 1
[9] = CC_NCI screening, LCA luminescence, biological replicate Set 2
[10] = CC_NCI screening, LCA, biological replicate Set 1, normalized to on-plate 0.3% DMSO controls
[11] = CC_NCI screening, LCA, biological replicate Set 2, normalized to on-plate 0.3% DMSO controls
[12] = CC_NCI screening, full-length luciferase counter-screen luminescence, normalized to on-plate 0.3% DMSO controls
[13] = CC_NCI screening, full-length luciferase counter-screen, normalized to on-plate 0.3% DMSO controls

T1 sequence (Q92915 1-252 isoform Q92915-2): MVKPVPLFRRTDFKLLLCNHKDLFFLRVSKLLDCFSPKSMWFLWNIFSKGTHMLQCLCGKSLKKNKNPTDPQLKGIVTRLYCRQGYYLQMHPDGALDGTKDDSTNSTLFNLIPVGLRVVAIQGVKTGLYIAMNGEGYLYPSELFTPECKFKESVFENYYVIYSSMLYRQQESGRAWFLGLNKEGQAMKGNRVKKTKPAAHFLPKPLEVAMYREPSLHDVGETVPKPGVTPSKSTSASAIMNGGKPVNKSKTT
T1 sequence (Q9UQD0 1763-1976 limits assumed): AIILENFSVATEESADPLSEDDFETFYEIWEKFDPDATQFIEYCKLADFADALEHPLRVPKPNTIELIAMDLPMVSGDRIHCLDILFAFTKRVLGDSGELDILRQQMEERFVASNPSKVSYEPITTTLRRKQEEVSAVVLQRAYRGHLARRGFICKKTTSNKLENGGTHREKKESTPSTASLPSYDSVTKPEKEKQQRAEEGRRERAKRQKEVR
Sequence of full-length P. pyralis luciferase (P08659 whole entry N50D/N119G/S548I/K549A/L550V, looked up): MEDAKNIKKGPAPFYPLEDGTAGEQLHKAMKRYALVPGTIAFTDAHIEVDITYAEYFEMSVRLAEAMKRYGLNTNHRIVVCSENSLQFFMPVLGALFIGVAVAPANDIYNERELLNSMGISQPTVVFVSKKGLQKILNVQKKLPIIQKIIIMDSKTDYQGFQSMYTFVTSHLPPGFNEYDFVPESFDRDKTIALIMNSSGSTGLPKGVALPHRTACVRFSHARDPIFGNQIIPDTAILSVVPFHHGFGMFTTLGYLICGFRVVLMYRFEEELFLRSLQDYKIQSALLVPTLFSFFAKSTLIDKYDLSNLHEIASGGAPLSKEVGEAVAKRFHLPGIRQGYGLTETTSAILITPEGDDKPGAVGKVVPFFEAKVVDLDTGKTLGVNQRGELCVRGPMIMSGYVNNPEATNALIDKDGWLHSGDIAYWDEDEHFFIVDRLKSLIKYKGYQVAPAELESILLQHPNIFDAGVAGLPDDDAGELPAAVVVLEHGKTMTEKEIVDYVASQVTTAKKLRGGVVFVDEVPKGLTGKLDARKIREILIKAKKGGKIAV

Row | Compound | Split Luciferase Assay Z-score Set 1 [1, 3] | Split Luciferase Assay % Lum Set 1 [1, 4] | Split Luciferase Assay Z-score Set 2 [1, 5] | Split Luciferase Assay %Lum Set 2 [1, 6] | Split Luciferase Assay %Lum Avg [1] | Toxicity Assay % Fluor (CTB cell viability fluorescence) (Clone V cells) | Toxicity Assay Z-score (CTB cell viability) (Clone V cells) | Luciferase Assay Z-score (full-length luciferase counter-screen) [2, 7] | Split Luciferase Assay % Lum Set 1 [1, 8] | Split Luciferase Assay %Lum Set 2 [1, 9] | Split Luciferase Assay Z-score Set 1 [1, 10] | Split Luciferase Assay Z-score Set 2 [1, 11] | Split Luciferase Assay %Lum Avg ([1]; CC_NCI screening) | Toxicity Assay % Fluor (Clone V cells; human, 16 h, 30 µM) | Toxicity Assay Z-score (Clone V cells; human, 16 h, 30 µM) | Luciferase Assay % Lum [2, 12] | Luciferase Assay Z-score [2, 13] | further results
1 | Nc1ccccc1NC(=O)c1ccc(CNC(=O)OCc2cccnc2)cc1 [MS-275] | -2.96 | 63.38% | -2.38 | 70.74% | 67.06% | 101.17% | 0.16 | 0.92 | – | – | – | – | – | – | – | – | – | Luciferase Assay % Lum (full-length luciferase counter-screen) [2, 7]: 107.21%
2 | Cl.N[C@@H](Cc1ccc(N(CCCl)CCCl)cc1)C(=O)O [Melphalan hydrochloride] | -1.64 | 79.68% | -0.10 | 98.83% | 89.26% | 107.21% | 1.01 | -1.86 | – | – | – | – | – | – | – | – | – | Luciferase Assay % Lum (full-length luciferase counter-screen) [2, 7]: 85.47%
3 | O=C1c2c(O)ccc(O)c2C(=O)c2c(NCCNCCO)ccc(NCCNCCO)c21 [Mitoxantrone] | – | – | – | – | – | – | – | – | 5.76% | 15.60% | -7.62 | -6.87 | 10.68% | 90.67% | -1.30 | 40.29% | -7.65 | –
4 | Cc1cn(-c2cc(NC(=O)c3ccc(C)c(Nc4nccc(-c5cccnc5)n4)c3)cc(C(F)(F)F)c2)cn1 [NILOTINIB] | – | – | – | – | – | – | – | – | 109.04% | 122.76% | 0.73 | 1.85 | 115.90% | – | – | 102.54% | 0.33 | Toxicity Assay % Fluor (Clone V cells): 88.70%; Toxicity Assay Z-score (Clone V cells): -1.58
5 | CCN(CC)CCCC(C)Nc1nc(C)cc(Nc2ccc3nc(C)cc(N)c3c2)n1 (centres unmarked) [NSC23766] | 0.12 | 101.43% | -0.01 | 99.87% | 100.65% | 111.37% | 1.59 | 0.79 | – | – | – | – | – | – | – | – | – | –
6 | COc1ccc(OC)c2c(=S)c3ccccc3[nH]c12 [NSC 625987] | -1.20 | 85.12% | -1.20 | 85.31% | 85.21% | 109.17% | 1.28 | -2.77 | – | – | – | – | – | – | – | – | – | Luciferase Assay % Lum (full-length luciferase counter-screen) [2, 7]: 78.37%
7 | CCNC(=O)c1noc(-c2cc(C(C)C)c(O)cc2O)c1-c1ccc(CN2CCOCC2)cc1 [NVP AUY922] | – | – | – | – | – | – | – | – | 40.55% | 50.98% | -4.80 | -3.99 | 45.76% | 88.69% | -1.58 | 86.39% | -1.74 | –
8 | O=C(/C=C/c1ccc(CN(CCO)CCc2c[nH]c3ccccc23)cc1)NO [NVP LAQ824] | – | – | – | – | – | – | – | – | 93.82% | 83.22% | -0.50 | -1.36 | 88.52% | 98.78% | -0.17 | 95.25% | -0.61 | –
9 | COc1cc(N2CCC(N3CCN(C)CC3)CC2)ccc1Nc1ncc(Cl)c(Nc2ccccc2S(=O)(=O)C(C)C)n1 [NVP TAE684] | -7.35 | 9.02% | -7.71 | 5.20% | 7.11% | 37.86% | -8.69 | -0.46 | – | – | – | – | – | – | – | – | – | Luciferase Assay % Lum (full-length luciferase counter-screen) [2, 7]: 96.39%
10 | COc1nc(N)nc2c1ncn2[C@@H]1O[C@H](CO)[C@@H](O)[C@@H]1O [Nelarabine] | – | – | – | – | – | – | – | – | 129.69% | 114.43% | 2.40 | 1.17 | 122.06% | 90.75% | -1.29 | – | – | Luciferase Assay % Lum [2]: 93.91%; Luciferase Assay Z-score [2]: -0.78
11 | Cc1cn(-c2cc(NC(=O)c3ccc(C)c(Nc4nccc(-c5cccnc5)n4)c3)cc(C(F)(F)F)c2)cn1 [Nilotinib] | – | – | – | – | – | – | – | – | 126.43% | 113.39% | 2.14 | 1.09 | 119.91% | 85.20% | -2.07 | 94.65% | -0.68 | –
12 | O=C(O)C(=O)O.[NH-][C@@H]1CCCC[C@H]1[NH-].[Pt+2] [Oxaliplatin] | – | – | – | – | – | – | – | – | 115.56% | 119.64% | 1.26 | 1.60 | 117.60% | – | – | 102.65% | 0.34 | Toxicity Assay % Fluor (Clone V cells): 90.53%; Toxicity Assay Z-score (Clone V cells): -1.32
13 | CN(C)Cc1c(C(=O)NCCOc2ccc(C(=O)NO)cc2)oc2ccccc12 [PCI-24781] | – | – | – | – | – | – | – | – | 118.82% | 98.83% | 1.52 | -0.10 | 108.83% | 93.46% | -0.91 | 91.15% | -1.13 | –
14 | COc1cccc(-c2cc(=O)c3ccccc3o2)c1N [PD 98059] | – | – | – | – | – | – | – | – | 103.60% | 106.11% | 0.29 | 0.50 | 104.86% | – | – | 90.17% | -1.26 | Toxicity Assay % Fluor (Clone V cells): 88.34%; Toxicity Assay Z-score (Clone V cells): -1.63
15 | COc1cc2ncnc(Nc3cccc(Br)c3)c2cc1OC [PD 153035] | – | – | – | – | – | – | – | – | 143.82% | 121.72% | – | – | 132.77% | 98.57% | -0.20 | – | – | Split Luciferase Assay Z-score Set 1 [1]: 3.54; Split Luciferase Assay Z-score Set 2 [1]: 1.77; Luciferase Assay % Lum [2]: 83.75%; Luciferase Assay Z-score [2]: -2.08
16 | CC(C)[C@H](NS(=O)(=O)c1ccc(-c2ccc(Br)cc2)cc1)C(=O)O [PD 166793] | 0.38 | 104.69% | -1.11 | 86.35% | 95.52% | 105.53% | 0.77 | 0.00 | – | – | – | – | – | – | – | – | – | Luciferase Assay % Lum (full-length luciferase counter-screen) [2, 7]: 99.99%
17 | Cc1cc(Nc2ncc3cc(-c4c(Cl)cccc4Cl)c(=O)n(C)c3n2)ccc1F [PD 180970] | – | – | – | – | – | – | – | – | 120.99% | 116.51% | 1.70 | 1.34 | 118.75% | – | – | 100.96% | 0.12 | Toxicity Assay % Fluor (Clone V cells): 102.30%; Toxicity Assay Z-score (Clone V cells): 0.32
18 | OCCn1cc(-c2cnc3nnn(Cc4ccc5ncccc5c4)c3n2)cn1 [PF-04217903] | – | – | – | – | – | – | – | – | 90.56% | 78.02% | -0.76 | -1.79 | 84.29% | – | – | 111.09% | 1.42 | Toxicity Assay % Fluor (Clone V cells): 99.86%; Toxicity Assay Z-score (Clone V cells): -0.02
